{"source": "paper PMC10415228", "about": "(Saudi Pharmaceutical Journal : SPJ, 2023)", "tested_on": "trypsin (serine protease)", "assay": "serine protease", "format": "biochemical", "data": [{"smiles": "O=c1c(O)c(-c2ccc(O)c(O)c2)oc2cc(O)cc(O)c12", "note": "[Quercetin]", "values": [{"measurement": "IC50", "result": 295.44, "unit": "µg/mL"}]}]}
